Test results taken from patent US20180186877A1 (NATIONAL CEREBRAL AND CARDIOVASCULAR CENTER, priority 2013, published 2018).

Legend:
human blood plasma = assay: Recalcification blood coagulation test with procyanidin; format: biochemical
Experimental: An anti-blood coagulation effect yielded by procyanidin was confirmed by the recalcification blood coagulation test. […] Thereafter, as in Example 8, human blood plasma and Ca2+ were added to the test tube, and the coagulation time was measured. Then, the coagulation time of the test tube to which no procyanidin was added, was also measured in a similar manner. Furthermore, the coagulation time of the test tube to which no recombinant LOX-1 protein was added, was also measured in a similar manner.

[1] = target: binding of LOX-1 to oxidized LDL (Homo sapiens, UniProt P78380); details: Nishizuka et al. 2011; cited from earlier work

procyanidin
coagulation time (human blood plasma; 1 μg/mL procyanidin added to blood plasma alone, no LOX-1): no influence | coagulation time (human blood plasma; 1 μg/mL procyanidin with 1 μg/mL LOX-1 and blood plasma, significance less than 5%): reduction of the coagulation time was suppressed | inhibition of binding of LOX-1 to oxidized LDL [1]: inhibits
